# pKi: −log10 of the molar value. Structures can show the parent of a compound that is named as a salt. Where two headings read alike, the source gives them in different places.
# Experiments:
# [1] = molecular target: human α4β2-nAChRs (mixture of HS and LS) (Homo sapiens, UniProt P17787+P43681); settings: SH-EP1-hα4β2 cells; ref [8], [9]; cited from earlier work
# HS α4β2-nAChR [2] = molecular target: T1, HS α4β2-nAChR (Homo sapiens, UniProt P17787+P43681); settings: relative to carbamylcholine; ref [8], [9]; cited from earlier work
# LS α4β2-nAChR = LS α4β2-nAChR (Homo sapiens, UniProt P17787+P43681); settings: relative to carbamylcholine; ref [8], [9]; cited from earlier work
# [3] = ref [12]; cited from earlier work
# [4] = tested on: high sensitivity (HS) α4β2-nAChR; settings: oocytes expressing human nAChRs; ref [15], [16]; cited from earlier work
# α7 subtype = settings: read-out: Ki α7 subtype; ref [15], [16]; cited from earlier work
# HS α4β2-nAChR [5] = molecular target: T1, HS α4β2-nAChR; assay: 86Rb+ ion efflux assay, efficacy at HS α4β2; format: cell-based; settings: relative to full agonist carbamylcholine; ± SEM
# mice [6] = assay: SmartCube behavioral platform; format: in vivo, mouse; settings: 15 min preinjection; for SmartCube behavioral signature, extent of effect: 5 and 10 mg/kg i.p.; for SmartCube behavioral signature, 10 mg/kg compared to 5 mg/kg: i.p.
# mice [7] = assay: Mouse forced swim test; format: in vivo; settings: BALB/cJ mice, 6-min test, P < 0.05
# rat α4β2 nAChR = rat α4β2 nAChR (Rattus norvegicus, UniProt P09483+P12390); format: binding; settings: versus the N-H analogue
# [8] = molecular target: α4β2* endogenous receptors prepared from rat forebrain (Rattus norvegicus, UniProt P09483+P12390); assay: [3H]epibatidine binding competition, α4β2*; settings: versus the N-H analogue
# β2-nAChRs = assay: [3H]epibatidine binding competition, β2-nAChRs overall; set-up: species or system rat; settings: versus parent compound 8
smiles,measurement,setting,value
"c1cnc2cc3c(cc2n1)[C@@H]1CNC[C@H]3C1 [Compound 1, varenicline]",Inactivation Efficacy,[1],83 ± 1.0%
same,Agonism HS-α4β2 Efficacy,HS α4β2-nAChR [2],106 ± 5.9%
same,Agonism LS-α4β2 Efficacy,LS α4β2-nAChR,34 ± 3.3%
Clc1ccc(OC[C@H]2CCN2)cn1 [Compound 5],stability in the presence of HCl or TFA following exposure to water,[3],dimerize to compound 6
"c1cncc(N2CCCNCC2)c1 [Compound 7, 1-(pyridin-3-yl)-1,4-diazepane]",efficacy relative to acetylcholine at HS α4β2-nAChR,[4],41%
same,pKi,α7 subtype,6.87
"COCC[C@H]1C[C@@H]1c1cncc(N2CCCNCC2)c1 [Compound 21, 1-[5-[(1S,2R)-2-(2-Methoxyethyl)cyclopropyl]pyridin-3-yl]-1,4-diazepane trifluoroacetate]",Agonism HS-α4β2 Efficacy,HS α4β2-nAChR [5],58–81%
same,"SmartCube behavioral signature, extent of effect",mice [6],most prominent effects
same,"SmartCube behavioral signature, 10 mg/kg compared to 5 mg/kg",mice [6],fairly similar behavioral signature
same,total immobility time compared to control group (water),mice [7]; acute PO 1 mg/kg,significantly decreased
same,total immobility time compared to control group (water),mice [7]; acute PO 10 mg/kg,significantly decreased
"COCC[C@H]1C[C@@H]1c1cncc(N2CCCN(C)CC2)c1 [Compound 22, 1-[5-[(1S,2R)-2-(2-methoxyethyl)cyclopropyl]pyridin-3-yl]-4-methyl-1,4-diazepane trifluoroacetate]",drop in binding affinity at α4β2 caused by N-methyl group,rat α4β2 nAChR,more than 10 fold
same,drop in binding affinity at α4β2* caused by N-methyl group,[8],more than 10 fold
"COCC[C@H]1C[C@@H]1c1cncc(N2C[C@@H]3C[C@H]2CN3)c1 [Compound 23, (1S,4S)-2-[5-[(1S,2R)-2-(2-methoxyethyl)cyclopropyl]pyridin-3-yl]-2,5-diazabicyclo[2.2.1]heptane]",decline in binding affinities at β2-nAChRs,β2-nAChRs,≥ 6 fold
"COCC[C@@H]1C[C@H]1c1cncc(N2CCCNCC2)c1 [Compound 25, 1-[5-[(1R,2S)-2-(2-methoxyethyl)cyclopropyl]pyridin-3-yl]-1,4-diazepane]",Agonism HS-α4β2 Efficacy,HS α4β2-nAChR [5],58–81%
same,"SmartCube behavioral signature, extent of effect",mice [6],most prominent effects
same,"SmartCube behavioral signature, 10 mg/kg compared to 5 mg/kg",mice [6],marked increase
"COCC[C@@H]1C[C@H]1c1cncc(N2C[C@@H]3C[C@H]2CN3)c1 [Compound 26, (1S,4S)-2-[5-[R,2S)-(2-(2-methoxyethyl)cyclopropyl]pyridin-3-yl]-2,5-diazabicyclo[2.2.1]heptane]",decline in binding affinities at β2-nAChRs,β2-nAChRs,≥ 6 fold
OCCc1cc(-c2cncc(N3CCCNCC3)c2)on1 [Compound 30],Agonism HS-α4β2 Efficacy,HS α4β2-nAChR [5],58–81%
same,"SmartCube behavioral signature, extent of effect",mice [6],most prominent effects
same,"SmartCube behavioral signature, 10 mg/kg compared to 5 mg/kg",mice [6],marked increase

# — PMC5097879 (European journal of medicinal chemistry, 2016)
